Data on 28 compounds can be found in patent US20150284360A1, “AMIDE DERIVATIVES OF ANILINE-RELATED COMPOUNDS AND COMPOSITIONS THEREOF” (C&C BIOPHARMA, LLC, priority 2014, published 2015).

In brackets after ≈: the same amount, converted by molar mass.

The nature of this series: Solubility of a compound in water. Format: physicochemical. Particulars: compound added until saturated. The protocol:
Solubility of a compound was obtained by adding the compound into water of known volume (e.g. 1 mL) until saturated, measuring the amount of the compound added, and obtaining the solubility of the compound in water (mg/mL) (Table 9).
Take `Cl.NCC(=O)Nc1ccccc1NC(=O)CCCCCC(=O)Nc1ccccc1` [Gly-PAOA•HCl]: the “Solubility in Water” value worked out at 11 mg/mL.
The result for `C[C@@H](O)[C@H](N)C(=O)Nc1ccccc1NC(=O)c1ccc(CNc2nccc(-c3cccnc3)n2)cc1.Cl` [Thr-MGCD0103•HCl] reads greater than 100 mg/mL; that for `Cl.Cl.NCCCC[C@H](N)C(=O)Nc1ccccc1NC(=O)CCCCCC(=O)Nc1ccccc1` [Lys-PAOA•2HCl], greater than 100 mg/mL; that for `Nc1ccccc1NC(=O)c1ccc(CNC(=O)OCc2cccnc2)cc1` [MS-275, Entinostat, reference compound], 0.016 mg/mL (≈ 42.5 µM).
As for `Cl.Cl.N=C(N)NCCC[C@H](N)C(=O)Nc1ccccc1NC(=O)CCCCCC(=O)Nc1cccc(Br)c1` [Arg-CC30•HCl], the “Solubility in Water” value amounted to 100 mg/mL.
With `CC(C)[C@H](N)C(=O)Nc1ccccc1NC(=O)CCCCCC(=O)Nc1cccc(Br)c1.Cl` [Val-CC30•HCl] the figure was 170 mg/mL; with `Cl.NCC(=O)Nc1ccccc1NC(=O)c1ccc(CNC(=O)OCc2cccnc2)cc1` [Gly-MS-275•HCl], 68 mg/mL; with `N[C@@H](CCC(=O)[O-])C(=O)Nc1ccccc1NC(=O)CCCCCC(=O)Nc1cccc(Br)c1.[Na+]` [CC30-Glu•Na], greater than 100 mg/mL.
With `CC(O)C(N)C(=O)Nc1ccccc1NC(=O)c1ccc(CNC(=O)OCc2cccnc2)cc1.Cl` (stereo not shown) [Thr-MS-275•HCl] the figure was greater than 100 mg/mL; with `Cl.N[C@@H](CO)C(=O)Nc1ccccc1NC(=O)CCCCCC(=O)Nc1cccc(Br)c1` [Ser-CC30•HCl], 10 mg/mL.
On to `CC(C)[C@H](N)C(=O)Nc1ccccc1NC(=O)CCCCCC(=O)Nc1ccccc1.Cl` [Val-PAOA•HCl], for which the “Solubility in Water” value was greater than 100 mg/mL.
The result for `Cl.Cl.N[C@@H](Cc1c[nH]cn1)C(=O)Nc1ccccc1NC(=O)CCCCCC(=O)Nc1cccc(Br)c1` [His-CC30•2HCl] reads 130 mg/mL.
As for `Cl.NCC(=O)Nc1ccccc1NC(=O)CCCCCC(=O)Nc1cccc(Br)c1` [Gly-CC30•HCl], the “Solubility in Water” value is reported as 10 mg/mL.
With `Nc1ccccc1NC(=O)c1ccc(CNc2nccc(-c3cccnc3)n2)cc1` [MGCD0103, Mocetinostat, reference compound] the figure was less than 1 mg/mL; with `O=C([O-])CCC(=O)Nc1ccccc1NC(=O)CCCCCC(=O)Nc1cccc(Br)c1.[Na+]` [CC30-Suc-ONa], 2 mg/mL.
With `Cl.NC(CO)C(=O)Nc1ccccc1NC(=O)c1ccc(CNC(=O)OCc2cccnc2)cc1` (stereo not shown) [Ser-MS-275•HCl] the figure was greater than 100 mg/mL; with `Nc1ccccc1NC(=O)CCCCCC(=O)Nc1ccccc1` [PAOA, reference compound], “.033 mg/mL”.
The result for `CC(C)C[C@H](N)C(=O)Nc1ccccc1NC(=O)CCCCCC(=O)Nc1cccc(Br)c1.Cl` [Leu-CC30•HCl] reads 50 mg/mL; that for `CC(C)C(N)C(=O)Nc1ccccc1NC(=O)c1ccc(CNc2nccc(-c3cccnc3)n2)cc1.Cl` (stereo not shown) [Val-MGCD0103•HCl], greater than 100 mg/mL.
In the case of `Cl.NC(=O)C[C@H](N)C(=O)Nc1ccccc1NC(=O)CCCCCC(=O)Nc1cccc(Br)c1` [Asn-CC30•HCl], the “Solubility in Water” value amounted to 30 mg/mL.
With `C[C@@H](O)[C@H](N)C(=O)Nc1ccccc1NC(=O)CCCCCC(=O)Nc1cccc(Br)c1.Cl` [Thr-CC30•HCl] the figure was 1350 mg/mL; with `Cl.N[C@@H](Cc1ccccc1)C(=O)Nc1ccccc1NC(=O)CCCCCC(=O)Nc1cccc(Br)c1` [Phe-CC30•HCl], 10 mg/mL; with `Cl.NC(CO)C(=O)Nc1ccccc1NC(=O)c1ccc(CNc2nccc(-c3cccnc3)n2)cc1` (stereo not shown) [Ser-MGCD0103•HCl], greater than 100 mg/mL.
In the case of `Cl.Cl.NCCCC[C@H](N)C(=O)Nc1ccccc1NC(=O)c1ccc(CNC(=O)OCc2cccnc2)cc1` [Lys-MS-275•2HCl], the “Solubility in Water” value is greater than 100 mg/mL.
The result for `Cl.NCC(=O)Nc1ccccc1NC(=O)c1ccc(CNc2nccc(-c3cccnc3)n2)cc1` [Gly-MGCD0103•HCl] reads greater than 100 mg/mL.
With `Cl.Cl.NCCCCC(N)C(=O)Nc1ccccc1NC(=O)c1ccc(CNc2nccc(-c3cccnc3)n2)cc1` (stereo not shown) [Lys-MGCD0103•2HCl] the figure was greater than 100 mg/mL; with `Cl.Cl.NCCC[C@H](N)C(=O)Nc1ccccc1NC(=O)CCCCCC(=O)Nc1cccc(Br)c1` [Orn-CC30•HCl], 720 mg/mL; with `CC(C)[C@H](N)C(=O)Nc1ccccc1NC(=O)c1ccc(CNC(=O)OCc2cccnc2)cc1.Cl` [Val-MS-275•HCl], greater than 100 mg/mL.
